Data as given in patent US12643903B2, “Bifunctional compounds for degradation of EGFR and related methods of use” (BeiGene, Ltd., priority 2020, dated 2026).

Columns and labels:
Assay type in all cases: cell-based
Details in all cases: 16 h treatment, EGFR degradation by HTRF
[1] = biological target: T1, EGFR (Homo sapiens, UniProt P00533, DEL746-750); assay: Cell Degradation 2: EGFR degradation in HCC827 cells, HTRF assay
T1 construct: endogenous in cells; host or cells: HCC827
Outline: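 DC50 values derive from four-parameter fits of percent inhibition versus concentration. The HTRF read-out (665/620 nm ratio, 337 nm excitation) followed 16 h compound exposure of HCC827 cells, 1 h lysis and overnight room-temperature incubation with the HTRF antibodies.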

[2] = biological target: T2, EGFR (Homo sapiens, UniProt P00533, L858R/T790M); assay: Cell Degradation 1: EGFR degradation in H1975 cells, HTRF assay
T2 construct: endogenous in cells; host or cells: H1975
T2 sequence (P00533 25-1210 T790M/L858R): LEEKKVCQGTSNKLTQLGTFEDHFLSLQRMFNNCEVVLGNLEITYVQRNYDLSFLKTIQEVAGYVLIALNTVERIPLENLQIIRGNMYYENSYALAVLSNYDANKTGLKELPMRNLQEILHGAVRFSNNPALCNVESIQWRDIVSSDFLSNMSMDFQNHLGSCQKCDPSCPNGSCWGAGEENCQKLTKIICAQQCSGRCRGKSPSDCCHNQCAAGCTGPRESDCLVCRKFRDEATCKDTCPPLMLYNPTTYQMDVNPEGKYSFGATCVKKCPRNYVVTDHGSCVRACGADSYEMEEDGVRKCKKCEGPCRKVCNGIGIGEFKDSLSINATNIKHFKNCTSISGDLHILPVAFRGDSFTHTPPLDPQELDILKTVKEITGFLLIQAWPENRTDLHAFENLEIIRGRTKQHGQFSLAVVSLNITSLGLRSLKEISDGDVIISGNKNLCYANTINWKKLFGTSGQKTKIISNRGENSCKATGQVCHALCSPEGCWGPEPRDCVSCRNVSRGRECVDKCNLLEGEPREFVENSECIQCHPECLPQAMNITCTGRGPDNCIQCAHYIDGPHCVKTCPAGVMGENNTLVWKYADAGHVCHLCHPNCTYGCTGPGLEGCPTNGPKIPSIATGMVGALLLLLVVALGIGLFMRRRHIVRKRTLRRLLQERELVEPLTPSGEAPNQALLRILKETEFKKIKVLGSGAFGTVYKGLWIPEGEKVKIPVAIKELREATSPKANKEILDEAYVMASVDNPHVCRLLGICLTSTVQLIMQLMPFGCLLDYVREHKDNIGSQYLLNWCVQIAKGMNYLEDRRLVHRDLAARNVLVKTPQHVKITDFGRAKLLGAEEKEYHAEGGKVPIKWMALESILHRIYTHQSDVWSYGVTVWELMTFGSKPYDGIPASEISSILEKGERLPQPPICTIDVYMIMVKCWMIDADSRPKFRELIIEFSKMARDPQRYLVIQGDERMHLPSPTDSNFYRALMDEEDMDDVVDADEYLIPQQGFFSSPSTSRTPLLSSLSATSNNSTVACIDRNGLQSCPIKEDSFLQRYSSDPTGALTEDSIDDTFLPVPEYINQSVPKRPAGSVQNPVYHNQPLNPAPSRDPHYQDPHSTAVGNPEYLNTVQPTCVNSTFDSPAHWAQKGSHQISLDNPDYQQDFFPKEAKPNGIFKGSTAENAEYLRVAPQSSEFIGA
Outline: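 EGFR levels were read by HTRF (337 nm excitation, 665 and 620 nm emission) in lysates of H1975 cells exposed to compound for 16 h, with antibodies incubated overnight at room temperature. Fitting percent inhibition versus concentration to a Hill equation gave DC50.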

[3] = test system: EGFR DTC; assay: Cell Degradation 3: EGFR degradation in BaF3 cells (DTC), HTRF assay
Outline: (§1)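 BaF3 cells expressing EGFR (LTC triple mutant C797S/L858R/T790M or DTC) exposed to compounds for 16 h, 8 doses from 4-fold dilution, 0.2% DMSO. Residual EGFR quantified by HTRF in lysates (triple mutant lysate diluted 1:1); DC50 from four-parameter logistic fit.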

[4] = biological target: T3, EGFR LTC (Homo sapiens, UniProt P00533, C797S/L858R/T790M); assay: Cell Degradation 3: EGFR degradation in BaF3 cells (LTC), HTRF assay
T3 construct: expressed in transfected cells; host or cells: BaF3
T3 sequence (P00533 25-1210 T790M/C797S/L858R): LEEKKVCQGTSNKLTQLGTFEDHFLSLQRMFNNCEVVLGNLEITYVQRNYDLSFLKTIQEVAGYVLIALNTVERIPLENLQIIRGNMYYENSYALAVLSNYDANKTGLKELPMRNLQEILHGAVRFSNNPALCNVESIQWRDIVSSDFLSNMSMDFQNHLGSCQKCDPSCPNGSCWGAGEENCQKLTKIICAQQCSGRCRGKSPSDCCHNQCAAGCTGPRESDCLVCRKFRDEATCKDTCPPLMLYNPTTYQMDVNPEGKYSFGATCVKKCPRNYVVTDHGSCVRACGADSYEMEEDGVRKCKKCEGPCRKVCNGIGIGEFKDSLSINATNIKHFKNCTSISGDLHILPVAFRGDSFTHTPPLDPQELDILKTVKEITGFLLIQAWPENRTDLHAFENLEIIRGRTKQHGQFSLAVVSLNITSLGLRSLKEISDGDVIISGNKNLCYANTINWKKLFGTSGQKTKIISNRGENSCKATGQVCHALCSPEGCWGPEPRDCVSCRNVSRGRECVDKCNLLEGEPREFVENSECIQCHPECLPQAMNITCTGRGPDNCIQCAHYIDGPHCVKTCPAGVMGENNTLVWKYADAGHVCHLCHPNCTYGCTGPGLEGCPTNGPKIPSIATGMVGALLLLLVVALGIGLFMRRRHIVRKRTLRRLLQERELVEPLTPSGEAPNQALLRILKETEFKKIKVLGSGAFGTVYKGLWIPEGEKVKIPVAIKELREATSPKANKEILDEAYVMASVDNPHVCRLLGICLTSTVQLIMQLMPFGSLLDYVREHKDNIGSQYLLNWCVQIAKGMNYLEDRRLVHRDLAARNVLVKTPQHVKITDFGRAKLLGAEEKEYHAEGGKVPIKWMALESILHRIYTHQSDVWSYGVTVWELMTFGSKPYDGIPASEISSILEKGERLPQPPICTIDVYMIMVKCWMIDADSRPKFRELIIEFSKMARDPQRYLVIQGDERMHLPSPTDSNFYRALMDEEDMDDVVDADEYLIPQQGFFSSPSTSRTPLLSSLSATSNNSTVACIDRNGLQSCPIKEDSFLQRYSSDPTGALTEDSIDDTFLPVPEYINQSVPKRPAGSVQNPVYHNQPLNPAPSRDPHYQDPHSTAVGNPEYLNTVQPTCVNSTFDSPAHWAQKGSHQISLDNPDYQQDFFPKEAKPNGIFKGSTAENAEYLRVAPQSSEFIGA
Outline: as §1

T1 sequence (P00533 with tags, fused parts or gaps DEL746-750): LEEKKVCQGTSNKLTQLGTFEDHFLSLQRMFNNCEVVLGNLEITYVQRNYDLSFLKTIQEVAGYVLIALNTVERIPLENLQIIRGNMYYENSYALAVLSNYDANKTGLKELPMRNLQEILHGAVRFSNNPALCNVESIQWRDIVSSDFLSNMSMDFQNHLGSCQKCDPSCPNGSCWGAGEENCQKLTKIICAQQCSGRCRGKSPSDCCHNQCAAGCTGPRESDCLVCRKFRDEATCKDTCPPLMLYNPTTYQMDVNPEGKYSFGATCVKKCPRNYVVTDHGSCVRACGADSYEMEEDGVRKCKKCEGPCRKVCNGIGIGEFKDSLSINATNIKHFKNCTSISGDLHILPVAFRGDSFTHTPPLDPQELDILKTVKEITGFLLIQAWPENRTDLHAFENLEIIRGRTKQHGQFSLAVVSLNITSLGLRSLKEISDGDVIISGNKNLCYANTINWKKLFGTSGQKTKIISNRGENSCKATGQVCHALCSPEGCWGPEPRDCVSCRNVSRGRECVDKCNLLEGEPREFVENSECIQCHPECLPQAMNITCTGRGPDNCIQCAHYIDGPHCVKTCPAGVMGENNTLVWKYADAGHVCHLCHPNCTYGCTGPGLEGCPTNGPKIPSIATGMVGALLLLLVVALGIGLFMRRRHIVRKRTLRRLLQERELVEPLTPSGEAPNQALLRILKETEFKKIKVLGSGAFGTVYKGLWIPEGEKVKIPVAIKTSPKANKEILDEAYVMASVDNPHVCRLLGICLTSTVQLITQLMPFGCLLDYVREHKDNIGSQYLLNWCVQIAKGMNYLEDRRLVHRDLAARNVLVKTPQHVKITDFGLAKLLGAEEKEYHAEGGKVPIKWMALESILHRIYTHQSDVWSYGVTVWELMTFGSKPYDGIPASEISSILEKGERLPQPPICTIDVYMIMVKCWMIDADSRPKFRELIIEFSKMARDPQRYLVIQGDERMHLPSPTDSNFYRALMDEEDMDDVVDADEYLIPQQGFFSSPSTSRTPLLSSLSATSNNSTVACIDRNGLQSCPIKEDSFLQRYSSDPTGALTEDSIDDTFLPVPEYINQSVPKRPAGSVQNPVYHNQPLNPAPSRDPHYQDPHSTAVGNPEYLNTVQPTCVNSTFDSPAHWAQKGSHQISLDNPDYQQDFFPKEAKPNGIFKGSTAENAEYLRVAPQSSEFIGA
T1 sequence (Q96SW2 whole entry partner): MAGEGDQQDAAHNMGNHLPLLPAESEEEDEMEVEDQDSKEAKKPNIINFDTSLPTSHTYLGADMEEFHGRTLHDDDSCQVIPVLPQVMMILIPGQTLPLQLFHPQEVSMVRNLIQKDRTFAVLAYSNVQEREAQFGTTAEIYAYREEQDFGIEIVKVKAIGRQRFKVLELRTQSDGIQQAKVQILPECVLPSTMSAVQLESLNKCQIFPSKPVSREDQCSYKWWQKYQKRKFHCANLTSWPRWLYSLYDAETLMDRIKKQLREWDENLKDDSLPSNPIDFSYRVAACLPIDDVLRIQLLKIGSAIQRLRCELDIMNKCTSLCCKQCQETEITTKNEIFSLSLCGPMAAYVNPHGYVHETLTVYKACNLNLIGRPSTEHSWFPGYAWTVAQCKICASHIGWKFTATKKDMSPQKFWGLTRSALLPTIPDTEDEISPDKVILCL

Compound	DC50 [1] [nM]	DC50 [2] [nM]	DC50 [3] [nM]	DC50 [4] [nM]
CS(=O)(=O)N1CCc2cccc(Nc3nc(Nc4ccc(N5CCC(N6CCN(CCc7cc(F)c(C8CCC(=O)NC8=O)c(F)c7)CC6)CC5)c(F)c4)nc4[nH]ccc34)c21 (stereo not drawn) [Example 68, 3-(2,6-difluoro-4-(2-(4-(1-(2-fluoro-4-((4-((1-(methylsulfonyl)indolin-7-yl)amino)-7H-pyrrolo[2,3-d]pyrimidin-2-yl)amino)phenyl)piperidin-4-yl)piperazin-1-yl)ethyl)phenyl)piperidine-2,6-dione]	17.6	3.7	3	4.4
CS(=O)(=O)N1CCc2cccc(Nc3nc(Nc4ccc(N5CCC(N6CCN(C(=O)C7CN(c8ccc9c(c8)C(=O)N(C8CCC(=O)NC8=O)C9=O)C7)CC6)CC5)c(F)c4)ncc3Cl)c21 (stereo not drawn) [Example 77, 5-(3-(4-(1-(4-((5-chloro-4-((1-(methylsulfonyl)indolin-7-yl)amino)pyrimidin-2-yl)amino)-2-fluorophenyl)piperidin-4-yl)piperazine-1-carbonyl)azetidin-1-yl)-2-(2,6-dioxopiperidin-3-yl)isoindoline-1,3-dione]	1.7	2.3	1.8	2.7
CS(=O)(=O)N1CCc2cccc(Nc3nc(Nc4ccc(N5CCC(N6CCN(CCC7CCN(c8ccc(C9CCC(=O)NC9=O)cc8)CC7)CC6)CC5)c(F)c4)ncc3Cl)c21 (stereo not drawn) [Example 79, 3-(4-(4-(2-(4-(1-(4-((5-chloro-4-((1-(methylsulfonyl)indolin-7-yl)amino)pyrimidin-2-yl)amino)-2-fluorophenyl)piperidin-4-yl)piperazin-1-yl)ethyl)piperidin-1-yl)phenyl)piperidine-2,6-dione]	5.5	6	49.6	84.6
CS(=O)(=O)N1CCc2cccc(Nc3nc(Nc4ccc(N5CCC(N6CCN(CCC7CCN(c8ccc(C9CCC(=O)NC9=O)c(F)c8)CC7)CC6)CC5)c(F)c4)ncc3Cl)c21 (stereo not drawn) [Example 80, 3-(4-(4-(2-(4-(1-(4-((5-chloro-4-((1-(methylsulfonyl)indolin-7-yl)amino)pyrimidin-2-yl)amino)-2-fluorophenyl)piperidin-4-yl)piperazin-1-yl)ethyl)piperidin-1-yl)-2-fluorophenyl)piperidine-2,6-dione]	4.3	5.5	6.5	12.2
CS(=O)(=O)N1CCc2cccc(Nc3nc(Nc4ccc(N5CCC(N6CCN(C(=O)[C@H]7CCN(c8ccc9c(c8)C(=O)N(C8CCC(=O)NC8=O)C9=O)C7)CC6)CC5)c(F)c4)ncc3Cl)c21 (stereo partly drawn) [Example 82, 5-((S)-3-(4-(1-(4-((5-chloro-4-((1-(methylsulfonyl)indolin-7-yl)amino)pyrimidin-2-yl)amino)-2-fluorophenyl)piperidin-4-yl)piperazine-1-carbonyl)pyrrolidin-1-yl)-2-(2,6-dioxopiperidin-3-yl)isoindoline-1,3-dione]	2.8	3.2	3.5	15.1
CS(=O)(=O)N1CCc2cccc(Nc3nc(Nc4ccc(N5CCC(N6CCN(C(=O)[C@@H]7CCN(c8ccc9c(c8)C(=O)N(C8CCC(=O)NC8=O)C9=O)C7)CC6)CC5)c(F)c4)ncc3Cl)c21 (stereo partly drawn) [Example 83, 5-((R)-3-(4-(1-(4-((5-chloro-4-((1-(methylsulfonyl)indolin-7-yl)amino)pyrimidin-2-yl)amino)-2-fluorophenyl)piperidin-4-yl)piperazine-1-carbonyl)pyrrolidin-1-yl)-2-(2,6-dioxopiperidin-3-yl)isoindoline-1,3-dione]	3	3.2	5.9	14.6
COc1cc(N2CCC(N3CCN(CCC4CCN(c5ccc6c(c5)C(=O)N(C5CCC(=O)NC5=O)C6=O)CC4)CC3)CC2)c(C)cc1Nc1ncc(Br)c(Nc2cccc3c2N(S(C)(=O)=O)CC3)n1 (stereo not drawn) [Example 91, 5-(4-(2-(4-(1-(4-((5-bromo-4-((1-(methylsulfonyl)indolin-7-yl)amino)pyrimidin-2-yl)amino)-5-methoxy-2-methylphenyl)piperidin-4-yl)piperazin-1-yl)ethyl)piperidin-1-yl)-2-(2,6-dioxopiperidin-3-yl)isoindoline-1,3-dione]	6.4	3.5	14.9	39.9
COc1cc(N2CCC(N3CCN(C[C@H]4C[C@H](c5ccc6c(c5)CN(C5CCC(=O)NC5=O)C6=O)C4)CC3)CC2)c(C)cc1Nc1ncc(Br)c(Nc2cccc3c2N(S(C)(=O)=O)CC3)n1 (stereo partly drawn) [Example 159, 3-(5-((1r,3r)-3-((4-(1-(4-((5-bromo-4-((1-(methylsulfonyl)indolin-7-yl)amino)pyrimidin-2-yl)amino)-5-methoxy-2-methylphenyl)piperidin-4-yl)piperazin-1-yl)methyl)cyclobutyl)-1-oxoisoindolin-2-yl)piperidine-2,6-dione]	2	3	11	19
COc1cc(N2CCC(N3CCN(CCc4cc(F)c(C5CCC(=O)NC5=O)c(F)c4)CC3)CC2)c(C)cc1Nc1nc(Nc2cccc3c2N(S(C)(=O)=O)CC3)c2cc[nH]c2n1 (stereo not drawn) [Example 163, 3-(2,6-difluoro-4-(2-(4-(1-(5-methoxy-2-methyl-4-((4-((1-(methylsulfonyl)indolin-7-yl)amino)-7H-pyrrolo[2,3-d]pyrimidin-2-yl)amino)phenyl)piperidin-4-yl)piperazin-1-yl)ethyl)phenyl)piperidine-2,6-dione]	20	3	49	40

Now from value to compound:

DC50 [1] [nM]	DC50 [2] [nM]	DC50 [3] [nM]	DC50 [4] [nM]	Compound
3.3	3.4	4.8	8	CS(=O)(=O)N1CCc2cccc(Nc3nc(Nc4ccc(N5CCC(N6CCN(CC7CN(c8ccc9c(c8)C(=O)N(C8CCC(=O)NC8=O)C9=O)C7)CC6)CC5)c(F)c4)ncc3Cl)c21 (stereo not drawn) [Example 76, 5-(3-((4-(1-(4-((5-chloro-4-((1-(methylsulfonyl)indolin-7-yl)amino)pyrimidin-2-yl)amino)-2-fluorophenyl)piperidin-4-yl)piperazin-1-yl)methyl)azetidin-1-yl)-2-(2,6-dioxopiperidin-3-yl)isoindoline-1,3-dione]
2.9	3	1.8	2.8	COc1cc(N2CCC(N3CCN(CC4CN(c5ccc6c(c5)CN(C5CCC(=O)NC5=O)C6=O)C4)CC3)CC2)ccc1Nc1ncc(Cl)c(Nc2cccc3c2N(S(C)(=O)=O)CC3)n1 (stereo not drawn) [Example 85, 3-(5-(3-((4-(1-(4-((5-chloro-4-((1-(methylsulfonyl)indolin-7-yl)amino)pyrimidin-2-yl)amino)-3-methoxyphenyl)piperidin-4-yl)piperazin-1-yl)methyl)azetidin-1-yl)-1-oxoisoindolin-2-yl)piperidine-2,6-dione]
2.7	1.8	13	16.2	COc1cc(N2CCC(N3CCN(CC4CN(c5ccc6c(c5)C(=O)N(C5CCC(=O)NC5=O)C6=O)C4)CC3)CC2)ccc1Nc1ncc(Cl)c(Nc2cccc3c2N(S(C)(=O)=O)CC3)n1 (stereo not drawn) [Example 86, 5-(3-((4-(1-(4-((5-chloro-4-((1-(methylsulfonyl)indolin-7-yl)amino)pyrimidin-2-yl)amino)-3-methoxyphenyl)piperidin-4-yl)piperazin-1-yl)methyl)azetidin-1-yl)-2-(2,6-dioxopiperidin-3-yl)isoindoline-1,3-dione]
3.1	3.5	2.4	16.5	COc1cc(N2CCC(N3CCN(C(=O)[C@H]4CCN(c5ccc6c(c5)C(=O)N(C5CCC(=O)NC5=O)C6=O)C4)CC3)CC2)ccc1Nc1ncc(Cl)c(Nc2cccc3c2N(S(C)(=O)=O)CC3)n1 (stereo partly drawn) [Example 87, 5-((S)-3-(4-(1-(4-((5-chloro-4-((1-(methylsulfonyl)indolin-7-yl)amino)pyrimidin-2-yl)amino)-3-methoxyphenyl)piperidin-4-yl)piperazine-1-carbonyl)pyrrolidin-1-yl)-2-(26-dioxopiperidin-3-yl)isoindoline-1,3-dione]
2.7	4.2	15.6	43.3	COc1cc(N2CCC(N3CCN(C(=O)[C@@H]4CCN(c5ccc6c(c5)C(=O)N(C5CCC(=O)NC5=O)C6=O)C4)CC3)CC2)ccc1Nc1ncc(Cl)c(Nc2cccc3c2N(S(C)(=O)=O)CC3)n1 (stereo partly drawn) [Example 88, 5-((R)-3-(4-(1-(4-((5-chloro-4-((1-(methylsulfonyl)indolin-7-yl)amino)pyrimidin-2-yl)amino)-3-methoxyphenyl)piperidin-4-yl)piperazine-1-carbonyl)pyrrolidin-1-yl)-2-(2,6-dioxopiperidin-3-yl)isoindoline-1,3-dione]
6	16	11	13	COc1cc(N2CCC(N3CCN(C[C@@H]4CCN(c5ccc6c(c5)CN(C5CCC(=O)NC5=O)C6=O)C4)CC3)CC2)c(C)cc1Nc1ncc(Br)c(Nc2cccc3c2N(S(C)(=O)=O)CC3)n1 (stereo partly drawn) [Example 154, 3-(5-((S)-3-((4-(1-(4-((5-bromo-4-((1-(methylsulfonyl)indolin-7-yl)amino)pyrimidin-2-yl)amino)-5-methoxy-2-methylphenyl)piperidin-4-yl)piperazin-1-yl)methyl)pyrrolidin-1-yl)-1-oxoisoindolin-2-yl)piperidine-2,6-dione]
